One assay relates to Lek and Fyn in T cells. Conditions: cited from earlier work.
The subject of assay [1] is T. gondii. Conditions: mice with ocular and cerebral toxoplasmosis, dependent on Beclin 1; cited from earlier work.
The test system of assay [2] is T. gondii. In words: In vitro infection of mammalian cells with T. gondii tachyzoites, counted by light microscopy. The settings on record: CHO cells, 0.3 μM or 1 μM, 2 or 24 hours. The assay is classed as cell-based, Toxoplasma gondii. How it is done: Chinese Hamster Ovary (CHO; a gift from Cathleen Carlin, Case Western Reserve University), human retinal pigment epithelial (RPE) cells (ARPE-19; American Type Culture Collection, ATCC, Manassas, VA), and mouse endothelial […]) transduced with Src shRNA or control encoding lentiviral vectors were cultured in complete media. Mouse brain endothelial cells expressing WT or DN EGFR were isolated as described. Endothelial cells were cultured in medium containing Endothelial Cell Growth Supplement (ECGS; Sigma-Aldrich, St Louis, MO). Mammalian cells were infected with tachyzoites of the RH or PTG stains of T. gondii; RH strain was used unless otherwise indicated. Cells were fixed at 2 hours or 24 hours followed by staining using Hema 3 Manual Staining System (Fisherbrand, Hampton, NH). At least 100 to 200 cells per monolayer were counted by examining a minimum of 5 random areas per monolayer. The percentage of infected cells, tachyzoites and vacuoles per 100 cells, and tachyzoites per vacuole were counted using light microscopy. Three independent experiments were performed. Saracatinib, Gefitinib (LC Laboratories, Woburn, MA) and lysosomal inhibitors leupeptin and pepstatin (10 μM; Millipore Sigma, Burlington, MA) were used in specified experiments. Each cell monolayer was generated and infected independently.

Each structure is given as a SMILES string.

Consider `Cc1nc(Nc2ncc(C(=O)Nc3c(C)cccc3Cl)s2)cc(N2CCN(CCO)CC2)n1.O` [Dasatinib, N-(2-chloro-6-methylphenyl)-2-[[6-[4-(2-hydroxyethyl)-1-piperazinyl]-2-methyl-4-pyrimidinyl]amino]-5-thiazole carboxamide monohydrate], for which, in the assay on Lek and Fyn in T cells, the “IFN-γ production by T cells” value is on record as “impaired”; the “activity of Lek and Fyn in T cells” value was “reduced”.
In the case of `COc1cc2ncnc(Nc3ccc(F)c(Cl)c3)c2cc1OCCCN1CCOCC1` [Gefitinib], the “parasite load and histopathology in the eye and brain” value in the assay on T. gondii [1] was “partial reduction”.
With `Cc1ccc(NC(=O)c2ccc(CN3CCN(C)CC3)cc2)cc1Nc1nccc(-c2cccnc2)n1` [Imatinib], the “parasite survival (infected cells, tachyzoites per 100 cells)” value in the assay on T. gondii [2] was “No significant difference”.
